Assay: Inhibition of Bacillus anthracis edema factor-induced cytotoxicity in mouse RAW264.7 cells assessed as LDH release after 4 hrs

| Structure (SMILES) | IC50 [µM] |
| --- | --- |
| O=C(O)c1cccc(NC(=O)c2cccc3c2C(=O)c2ccccc2-3)c1 [3-[(9-oxo-9Hfluorene-1-carbonyl)-amino]-benzoic acid] | 1.7 |
| COC(=O)c1ccc([C@H]2Nc3ccc(C(=O)O)cc3[C@@H]3C=CC[C@H]23)cc1 [(3aS,4S,9bR)-4-(4-(methoxycarbonyl)phenyl)-3a,4,5,9b-tetrahydro-3H-cyclopenta[c]quinoline-8-carboxylic acid] | 100 |

— BindingDB's records for doi:10.1016/j.bmc.2008.06.036 (University of Texas Medical Branch, 2008)
